Experiments:
Rattus norvegicus [1] = experiment: In vivo neuroprotective activity to block nitrogen (N2) lethality in male Dawley rats by ip administration at a dose of 40 mg/kg; assay type: functional; conditions: route intraperitoneal
[2] = biological target: T1, 5-hydroxytryptamine receptor 1A (Rattus norvegicus, UniProt P19327); experiment: In vitro binding affinity towards serotonin 5-HT1A receptor by the displacement of [3H]8-OH-DPAT from rat hippocampus; assay type: tissue-based
T1 sequence (P19327 whole entry): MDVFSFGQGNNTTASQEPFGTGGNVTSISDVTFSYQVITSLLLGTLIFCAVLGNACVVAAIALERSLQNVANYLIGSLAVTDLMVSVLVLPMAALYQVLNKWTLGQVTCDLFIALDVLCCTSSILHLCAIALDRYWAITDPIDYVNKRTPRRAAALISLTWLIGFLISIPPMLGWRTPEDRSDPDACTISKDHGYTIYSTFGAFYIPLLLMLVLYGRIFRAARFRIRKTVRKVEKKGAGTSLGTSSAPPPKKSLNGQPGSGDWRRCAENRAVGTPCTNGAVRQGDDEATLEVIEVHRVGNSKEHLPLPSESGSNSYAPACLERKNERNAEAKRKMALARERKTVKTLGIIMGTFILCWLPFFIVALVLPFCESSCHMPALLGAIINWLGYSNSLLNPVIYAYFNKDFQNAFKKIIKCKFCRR

[3] = biological target: 5-hydroxytryptamine receptor 2A (Rattus norvegicus, UniProt P14842); experiment: In vitro binding affinity towards serotonin 5-HT2A receptor by the displacement of [3H]spiperone from rat cortical membranes; assay type: cell membranes, Membrane
Rattus norvegicus [4] = experiment: In vivo neuroprotective activity to block nitrogen (N2) lethality in male Dawley rats by ip administration at a dose of 80 mg/kg; assay type: functional; conditions: route intraperitoneal
Rattus norvegicus [5] = experiment: In vivo neuroprotective activity to block nitrogen (N2) lethality in male Dawley rats by ip administration at a dose of 20 mg/kg; assay type: functional; conditions: route intraperitoneal
Rattus norvegicus [6] = experiment: In vivo neuroprotective activity to block nitrogen (N2) lethality in male Dawley rats by ip administration at a dose of 100 mg/kg; assay type: functional; conditions: route intraperitoneal
Rattus norvegicus [7] = experiment: In vivo neuroprotective activity to block nitrogen (N2) lethality in male Dawley rats by ip administration at a dose of 50/100 mg/kg; assay type: functional

5-hydroxytryptamine receptor 2A, sequence (P14842 whole entry): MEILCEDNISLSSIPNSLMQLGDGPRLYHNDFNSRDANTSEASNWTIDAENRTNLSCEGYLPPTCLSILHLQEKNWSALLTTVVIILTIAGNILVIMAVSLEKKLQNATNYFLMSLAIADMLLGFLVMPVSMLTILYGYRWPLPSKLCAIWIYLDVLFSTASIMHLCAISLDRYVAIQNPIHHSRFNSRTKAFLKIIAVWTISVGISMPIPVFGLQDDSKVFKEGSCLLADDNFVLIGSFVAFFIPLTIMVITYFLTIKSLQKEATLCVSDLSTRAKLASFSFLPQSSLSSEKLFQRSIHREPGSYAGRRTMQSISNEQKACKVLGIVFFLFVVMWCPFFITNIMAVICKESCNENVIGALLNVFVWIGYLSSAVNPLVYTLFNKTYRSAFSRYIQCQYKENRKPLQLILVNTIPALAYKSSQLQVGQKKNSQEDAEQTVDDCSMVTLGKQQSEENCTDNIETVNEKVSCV

| SMILES | Protection (Rattus norvegicus [1]) | IC50 [2] | IC50 [3] | also measured |
| --- | --- | --- | --- | --- |
| OC(CCCN1CCN(c2ncc(F)cn2)CC1)(c1ccc(F)cc1)C1CCCCC1 (configuration not stated) | 75% | 50 nM | 336 nM | – |
| O=C(NC(CCCN1CCN(c2ncc(F)cn2)CC1)c1ccc(F)cc1)c1ccc(F)cc1 (configuration not stated) | 88% | 106 nM | 468 nM | – |
| Fc1cnc(N2CCN(CCCCC3CCCCC3)CC2)nc1 | – | 315 nM | – | Protection (Rattus norvegicus [4]): 75% |
| Fc1ccc(OCCCN2CCN(c3ncc(F)cn3)CC2)cc1 | 25% | 145 nM | 141 nM | – |
| O=S(=O)(NC(CCCN1CCN(c2ncc(F)cn2)CC1)c1ccc(F)cc1)c1ccc(F)cc1 (configuration not stated) | – | 1810 nM | 3400 nM | Protection (Rattus norvegicus [4]): 100% |
| CC(=O)NC(CCCN1CCN(c2ncc(F)cn2)CC1)c1ccc(F)cc1 (configuration not stated) | 13% | 289 nM | – | – |
| CC(=O)OC(CCCN1CCN(c2ncc(F)cn2)CC1)c1ccc(F)cc1 (configuration not stated) | – | 46 nM | 504 nM | Protection (Rattus norvegicus [4]): 100% |
| O=C(OC(CCCN1CCN(c2ncc(F)cn2)CC1)c1ccc(F)cc1)c1ccccc1 (configuration not stated) | – | 581 nM | – | Protection (Rattus norvegicus [4]): 63% |
| OC(CCCN1CCN(c2ncc(F)cn2)CC1)C1CCCCC1 (configuration not stated) | 100% | 30 nM | – | – |
| O=S(=O)(NC(CCCN1CCN(c2ncc(F)cn2)CC1)C1CCCCC1)c1ccc(F)cc1 (configuration not stated) | – | – | 760 nM | Protection (Rattus norvegicus [5]): 50% |
| O=C(NC(CCCN1CCN(c2ncc(F)cn2)CC1)C1CCCCC1)c1ccc(F)cc1 (configuration not stated) | – | – | 760 nM | Protection (Rattus norvegicus [5]): 50% |
| O=S(=O)(NC(CCCN1CCN(c2ncc(F)cn2)CC1)c1ccc(F)c2ccccc12)c1ccc(F)cc1 (configuration not stated) | 38% | – | – | – |
| Fc1ccc(SCCCN2CCN(c3ncc(F)cn3)CC2)cc1 | 13% | 129 nM | – | – |
| NC(CCCN1CCN(c2ncc(F)cn2)CC1)C1CCCCC1 (configuration not stated) | – | 257 nM | – | Protection (Rattus norvegicus [5]): 50% |
| Fc1ccc(CCCCN2CCN(c3ncc(F)cn3)CC2)cc1 | 75% | 71 nM | 212 nM | – |
| NC(CCCN1CCN(c2ncc(F)cn2)CC1)c1ccc(F)c2ccccc12 (configuration not stated) | 38% | 345 nM | – | – |
| OC(CCCN1CCN(c2ncc(F)cn2)CC1)c1ccc(F)c2ccccc12 (configuration not stated) | – | 562 nM | 1010 nM | Protection (Rattus norvegicus [6]): 100% |
| O=S(=O)(CCCN1CCN(c2ncc(F)cn2)CC1)c1ccc(F)cc1 | 25% | 461 nM | – | – |
| Fc1cnc(N2CCN(CCCCc3ccc(F)c4ccccc34)CC2)nc1 | – | 414 nM | 590 nM | Protection (Rattus norvegicus [5]): 100% |
| OC(CCCN1CCN(c2ncc(F)cn2)CC1)c1ccc(F)cc1 (configuration not stated) [BMY-14802] | – | – | 1700 nM | Protection (Rattus norvegicus [7]): 63% |

— ChEMBL document CHEMBL1127947, “Synthesis and evaluation of n-substituted 1-(5-fluoro-2-pyrimidinyl)piperazine derivatives as potential anti-ischemic agents” (Bioorg Med Chem Lett, 1994)
